{"source": "patent US10092575B2", "about": "“Substituted thiophene- and furan-fused azolopyrimidine-5-(6H)-one compounds” (DART NEUROSCIENCE (CAYMAN) LTD., priority 2012, dated 2018)"}
{"target": "human PDE1b enzyme (Homo sapiens (Human), UniProt Q01064)", "experiment": "PDE1b inhibitory assay (IMAP TR-FRET)", "conditions": "not given", "units": {"EC50": "nM"}}
{"smiles": "COc1ccc(Cn2c(=O)n3ncnc3c3c4c(sc32)CN(C(C)C(F)F)CC4)cc1", "note": "(centres unmarked) [Example 151, 9-(1,1-Difluoropropan-2-yl)-6-(4-methoxybenzyl)-8,9,10,11-tetrahydropyrido[4′,3′:4,5]thieno[3,2-e][1,2,4]triazolo[1,5-c]pyrimidin-5(6H)-one]", "EC50": "100 to 1000"}
{"smiles": "O=c1n(Cc2ccc(Cl)cc2)c2sc3c(c2c2ncnn12)CCN(CC(F)(F)F)C3", "note": "[Example 107, 6-(4-Chlorobenzyl)-9-(2,2,2-trifluoroethyl)-8,9,10,11-tetrahydropyrido[4′,3′:4,5]thieno[3,2-e][1,2,4]triazolo[1,5-c]pyrimidin-5 (6H)-one]", "EC50": "100 to 1000"}
{"smiles": "COc1ccc(Cn2c(=O)n3ncnc3c3cc(CN4CCC5(C4)CC5(F)F)sc32)cc1", "note": "(centres unmarked) [Example 192, 8-((1,1-Difluoro-5-azaspiro[2.4]heptan-5-yl)methyl)-6-(4-methoxybenzyl)thieno[3,2-e][1,2,4]triazolo[1,5-c]pyrimidin-5(6H)-one]", "EC50": "100 to 1000"}
{"smiles": "COc1ccc(Cn2c(=O)n3ncnc3c3c4c(sc32)N(Cc2ccc(Cl)cc2)CCC4)cc1OC", "note": "[Example 153, 8-(4-Chlorobenzyl)-6-(3,4-dimethoxybenzyl)-8,9,10,11-tetrahydropyrido[3′,2′:4,5]thieno[3,2-e][1,2,4]triazolo[1,5-c]pyrimidin-5 (6H)-one]", "EC50": "1000 to 10000"}
{"smiles": "O=c1n(Cc2cccc(Cl)c2)c2sc3c(c2c2ncnn12)CCCC3", "note": "[Example 85, 6-(3-Chlorobenzyl)-8,9,10,11-tetrahydrobenzo[4,5]thieno[3,2-e][1,2,4]triazolo[1,5-c]pyrimidin-5(6H)-one]", "EC50": "100 to 1000"}
{"smiles": "COc1ccc(Cn2c(=O)n3ncnc3c3c(C)c(CO)sc32)cc1", "note": "[Example 77, 8-(Hydroxymethyl)-6-(4-methoxybenzyl)-9-methylthieno[3,2-e][1,2,4]triazolo[1,5-c]pyrimidin-5(6H)-one]", "EC50": "100 to 1000"}
{"smiles": "COc1ccc(Cn2c(=O)n3ncnc3c3cc(CN(C)CC4(C)COC4)sc32)c(F)c1F", "note": "[Example 210, 6-(2,3-Difluoro-4-methoxybenzyl)-8-((methyl((3-methyloxetan-3-yl)methyl)amino)methyl)thieno[3,2-e][1,2,4]triazolo[1,5-c]pyrimidin-5(6H)-one]", "EC50": "100 to 1000"}
{"smiles": "O=c1n(Cc2ccccc2Cl)c2sc3c(c2c2ncnn12)CCCC3", "note": "[Example 81, 6-(2-Chlorobenzyl)-8,9,10,11-tetrahydrobenzo[4,5]thieno[3,2-e][1,2,4]triazolo[1,5-c]pyrimidin-5(6H)-one]", "EC50": "1000 to 10000"}
{"smiles": "O=c1n(Cc2ccccc2)c2sc(Cc3ccccc3)cc2c2ncnn12", "note": "[Example 17, 6,8-Dibenzylthieno[3,2-e][1,2,4]triazolo[1,5-c]pyrimidin-5(6H)-one]", "EC50": "100 to 1000"}
{"smiles": "COc1ccc(Cn2c(=O)n3ncnc3c3c4c(sc32)CN(Cc2ccc3c(c2)OC(F)(F)O3)CC4)cc1", "note": "[Example 114, 9-((2,2-Difluorobenzo[d][1,3]dioxol-5-yl)methyl)-6-(4-methoxybenzyl)-8,9,10,11-tetrahydropyrido[4′,3′:4,5]thieno[3,2-e][1,2,4]triazolo[1,5-c]pyrimidin-5 (6H)-one]", "EC50": "100 to 1000"}
{"target": "human PDE1b enzyme (Homo sapiens (Human), UniProt Q01064)", "experiment": "PDE1b inhibitory assay (IMAP TR-FRET)", "conditions": "negative log of half-maximal molar inhibitory concentration; 200 nM FAM-cAMP; reported as ranges"}
{"smiles": "COc1ccc(Cn2c(=O)n3ncnc3c3c4c(sc32)CN(Cc2nnc(C)s2)CC4)cc1", "note": "[Example 108, 6-(4-Methoxybenzyl)-9-((5-methyl-1,3,4-thiadiazol-2-yl)methyl)-8,9,10,11-tetrahydropyrido[4′,3′:4,5]thieno[3,2-e][1,2,4]triazolo[1,5-c]pyrimidin-5(6H)-one]", "PDE1b (pEC50)": ">7"}
{"smiles": "COc1ccc(Cn2c(=O)n3ncnc3c3cc(CN4CCS(=O)(=O)CC4)sc32)cc1", "note": "[Example 206, 8-((1,1-Dioxidothiomorpholino)methyl)-6-(4-methoxybenzyl)thieno[3,2-e][1,2,4]triazolo[1,5-c]pyrimidin-5(6H)-one]", "PDE1b (pEC50)": ">7"}
{"smiles": "COc1ccc(Cn2c(=O)n3ncnc3c3c(C)c(CN(C)C4CC4)sc32)cc1", "note": "[Example 46, 8-((Cyclopropyl(methyl)amino)methyl)-6-(4-methoxybenzyl)-9-methylthieno[3,2-e][1,2,4]triazolo[1,5-c]pyrimidin-5(6H)-one]", "PDE1b (pEC50)": ">7"}
{"smiles": "O=c1n(Cc2ccc(Cl)cc2F)c2sc3c(c2c2ncnn12)CCN(Cc1ccccn1)C3", "note": "[Example 130, 6-(4-Chloro-2-fluorobenzyl)-9-(pyridin-2-ylmethyl)-8,9,10,11-tetrahydropyrido[4′,3′:4,5]thieno[3,2-e][1,2,4]triazolo[1,5-c]pyrimidin-5 (6H)-one]", "PDE1b (pEC50)": ">7"}
{"smiles": "O=c1n(Cc2ccc(Cl)cc2F)c2sc3c(c2c2ncnn12)CCN(Cc1ncccn1)C3", "note": "[Example 132, 6-(4-Chloro-2-fluorobenzyl)-9-(pyrimidin-2-ylmethyl)-8,9,10,11-tetrahydropyrido[4′,3′:4,5]thieno[3,2-e][1,2,4]triazolo[1,5-c]pyrimidin-5 (6H)-one]", "PDE1b (pEC50)": ">7"}
{"smiles": "COc1ccc(Cn2c(=O)n3ncnc3c3cc(CN4CCC5(CC4)COC5)sc32)cc1", "note": "[Example 39, 8-(2-Oxa-7-azaspiro[3.5]nonan-7-ylmethyl)-6-(4-methoxybenzyl)thieno[3,2-e][1,2,4]triazolo[1,5-c]pyrimidin-5(6H)-one]", "PDE1b (pEC50)": ">7"}
{"smiles": "COc1ccc(Cn2c(=O)n3ncnc3c3c4c(sc32)CN(S(C)(=O)=O)CC4)cc1", "note": "[Example 162, 6-(4-Methoxybenzyl)-9-(methylsulfonyl)-8,9,10,11-tetrahydropyrido[4′,3′:4,5]thieno[3,2-e][1,2,4]triazolo[1,5-c]pyrimidin-5(6H)-one]", "PDE1b (pEC50)": ">7"}
{"smiles": "COc1ccc(Cn2c(=O)n3ncnc3c3c(C)c(CN4CCOC(C)C4)sc32)cc1", "note": "(centres unmarked) [Example 70, 6-(4-Methoxybenzyl)-9-methyl-8-((2-methylmorpholino)methyl)thieno[3,2-e][1,2,4]triazolo[1,5-c]pyrimidin-5(6H)-one]", "PDE1b (pEC50)": ">7"}
{"smiles": "Cc1csc2c1c1ncnn1c(=O)n2Cc1ccc(-c2ccccc2)cc1", "note": "[Example 7, 6-([1,1′-Biphenyl]-4-ylmethyl)-9-methylthieno[3,2-e][1,2,4]triazolo[1,5-c]pyrimidin-5(6H)-one]", "PDE1b (pEC50)": "<5"}
{"smiles": "COc1ccc(Cn2c(=O)n3ncnc3c3c4c(sc32)CN(CC2CC2)CC4)cc1", "note": "[Example 110, 9-(Cyclopropylmethyl)-6-(4-methoxybenzyl)-8,9,10,11-tetrahydropyrido[4′,3′:4,5]thieno[3,2-e][1,2,4]triazolo[1,5-c]pyrimidin-5 (6H)-one]", "PDE1b (pEC50)": ">7"}
{"smiles": "COc1ccc(Cn2c(=O)n3ncnc3c3c(C)c(CN4CCN(C(C)C)CC4)sc32)cc1", "note": "[Example 64, 8-((4-Isopropylpiperazin-1-yl)methyl)-6-(4-methoxybenzyl)-9-methylthieno[3,2-e][1,2,4]triazolo[1,5-c]pyrimidin-5(6H)-one]", "PDE1b (pEC50)": ">7"}
{"smiles": "COc1ccc(Cn2c(=O)n3ncnc3c3c4c(sc32)CN(Cc2ncccn2)CCC4)cc1", "note": "[Example 145, 6-(4-Methoxybenzyl)-9-(pyrimidin-2-ylmethyl)-6,8,9,10,11,12-hexahydro-5H-[1,2,4]triazolo[1″,5″:1′,6]pyrimido[5′,4′:4,5]thieno[2,3-c]azepin-5-one]", "PDE1b (pEC50)": ">7"}
{"smiles": "CCC1CN(Cc2sc3c(c2C)c2ncnn2c(=O)n3Cc2ccc(OC)cc2)CCO1", "note": "(centres unmarked) [Example 68, 8-((2-Ethylmorpholino)methyl)-6-(4-methoxybenzyl)-9-methylthieno[3,2-e][1,2,4]triazolo[1,5-c]pyrimidin-5(6H)-one]", "PDE1b (pEC50)": ">7"}
